Assay results published in ChEMBL document CHEMBL1125606, “Synthesis and binding of [125I2]philanthotoxin-343, [125I2]philanthotoxin-343-lysine, and [125I2]philanthotoxin-343-arginine to rat brain membranes” (J Med Chem, 1991).

Species: Rattus norvegicus
Assay: Percent control measured by evaluating the inhibition of 3 nM [125I]PhTX-343-lysine binding to glutamate receptors in rat cortical membranes
Type: cell membranes
Parameters: scale not given: the % may be the effect or the level left
Conditions: Membrane
In the case of C[C@]12N[C@H](Cc3ccccc31)c1ccccc12, the Activity is reported as 92%. Work on C=C(C)[C@H]1CN[C@H](C(=O)O)[C@H]1CC(=O)O yielded an Activity of 103%. NCC(=O)O gave an Activity of 109%. For CCCC(=O)N[C@@H](Cc1ccc(O)cc1)C(=O)NCCCCNCCCNCCCN, the Activity was 32.7%. Work on N[C@@H](CCC(=O)O)C(=O)O yielded an Activity of 99%. c1ccc(C2(N3CCCCC3)CCCCC2)cc1 showed an Activity of 81%. Compound N[C@@H](Cn1oc(=O)[nH]c1=O)C(=O)O has an Activity of 104%. Compound NC(CCCP(=O)(O)O)C(=O)O (stereo unspecified) has an Activity of 94%. Work on O=[N+]([O-])c1cc2nc(O)c(O)nc2cc1[N+](=O)[O-] yielded an Activity of 102%. With CNC(CCC(=O)O)C(=O)O (stereo unspecified) the Activity was 96%. NCCCNCCCCNCCCN gave an Activity of 14.4%.
